How the values were obtained:
[1] = administered to the foal; cited from earlier work
R equi = conditions: administered to the foal; cited from earlier work
[2] = Whole blood and serum gallium in horses after gallium nitrate by nasogastric tube / oral dosing; assay type: in vivo
Method: FIG. 1 is a graph showing whole blood concentrations (micromoles/g) of horses in which gallium nitrate was administered daily after pulling blood for two days pre-administration. The horses were treated for five days.
(§1) For example, without limitation, in horses fed the same amount, the blood concentration increased from 0.0000231 micromoles/g to 0.0009004 micromoles/g well below what is needed to kill R. equi in the blood, but is a […] increase in blood concentration over time. Previous in vitro data found anything over 0.050 micromoles/ml killed R. equi in culture, and higher concentrations worked better. Administering oral gallium nitrate to mares daily achieved about 1.5 to 7.1 micromoles of gallium per gram of dry feces. This also led to a reduction in the concentration of R. equi in the feces of the mares.
(§2) For example, without limitations, two adult horses were given a single dose of gallium nitrate by nasogastric tube at a dose of 9.2 mg/kg at 1% gallium nitrate concentration. […] Based on tis work, two more horses were dosed with 9.2 mg/kg of daily for 6 days to determine steady state values. […] There were traces of gallium present in both the red blood cells (“RBC”) and smaller amounts in the serum prior to any medication administration. It appears to concentrate in the RBC and move into the serum. The significance of this is unknown.

[3] = Fecal concentration of gallium in mares given oral gallium nitrate daily; assay type: in vivo; conditions: 9.2 mg/kg of 1% GaN daily from day 320
Excerpt: FIG. 3 is a graph showing fecal concentration of gallium in ppm of gram of feces in control mares versus treated.
as §1
To determine the number of virulent colonies on each plate, a modified colony immunoblot method was used, as previously described (E.g., Grimm M B, Cohen N D, Slovis N M, et al. Evaluation of mares from a Thoroughbred breeding farm as a source of Rhodococcus equi for their foals using quantitative culture and a colony immunoblot assay. Am J Vet Res 2007; 68:63-71). Briefly, this procedure entails applying nitrocellulose membranes to culture plates to transfer bacterial surface proteins, blotting the membranes using a murine monoclonal antibody against the vapA protein, and then using a labeled secondary antibody to detect the presence of vapA-positive (i.e. virulent) colonies. […]

virulent R. equi [4] = assay: Fecal concentration of virulent R. equi in peripartum mares (culture, colony immunoblot); assay type: in vivo, Rhodococcus equi
Method: (§3) As part of a non-limiting example of an embodiment of the invention, the effect of oral GaN on the concentrations of virulent R. equi in the feces of the mares was determined. Twenty-one horses were randomly assigned in a paired block design to ensure that 10 mares were part of the treated group and 11 mares were part of the control group. These twenty-one Arabian mares were treated daily with either oral gallium nitrate or placebo. Fecal samples were collected at day 320 of gestation (time 1), the week before foaling (time 2), and the week after foaling (time 3). Airborne concentration of R. equi were measured in the stall within 6 hours post foaling using a microbial air sampling system into which standard (100-mm) culture plates with a media selective for R. equi have been loaded. This sample size of mares was selected on the basis of power calculations using the following assumptions: (a) significance level of P=0.05; (b) statistical power of 90%; (c) a mean of 1×10^4 colony forming units (cfu) per gram of feces among control mares; (d) a mean of 1×10^3 cfu per gram of feces among principal mares; and (e) standard deviations of 1×10^4 and 1×10^3 for the control and principal groups, respectively. The values for fecal concentrations were made on the basis of prior experiences of a collaborator. The total number of R. equi colonies on a plate was determined by morphologic identification; additionally, 10 colonies identified as R. equi each month were tested by PCR to confirm that the isolates are R. equi.
To determine the number of virulent colonies on each plate, a modified colony immunoblot method was used, as previously described (E.g., Grimm M B, Cohen N D, Slovis N M, et al. Evaluation of mares from a Thoroughbred breeding farm as a source of Rhodococcus equi for their foals using quantitative culture and a colony immunoblot assay. Am J Vet Res 2007; 68:63-71). […]
Concentrations of total R. equi were determined by morphological characteristics. The concentration of virulent R. equi was determined using a modified colony immunoblot method. […]

virulent R. equi [5] = assay: Virulent R. equi in feces of mares by real-time TaqMan PCR of vapA gene; assay type: in vivo, Rhodococcus equi
Method: As part of a non-limiting example of an embodiment of the invention, virulent R. equi in feces was measured in the feces using the following method. Two milliliters of PBS were added to 1 g of each fecal sample in a conical tube. Thereafter, each sample was vortexed for 10 seconds and centrifuged at 13,000× g for 1 minute. In order to minimize contamination, all pipetting steps were performed in a laminar flow cabinet. Nucleic acid purification from 180 μl of supernatant fluid was performed using an automated nucleic acid extraction system (CAS-1820 X-tractor Gene, Corbett Life Science, Sydney, Australia) according to the manufacturer's recommendations. A real-time TaqMan PCR assay for R. equi has been established and validated. The assay is based on the detection of a specific 75 base-pair long product of the vapA gene of R. equi (GenBank accession number AF116907; oligonucleotides: forward primer […], reverse primer […], probe […]). Each PCR reaction contained 400 nM of each primer, 80 nM of the TaqMan probe and mastermix (TaqMan Universal PCR Mastermix, Applied Biosystems, Foster City, Calif.) and 1 μL of the gDNA sample in a final volume of 12 μL. […] DNA extraction and amplification efficiency were verified by quantitating the universal bacterial 16S rRNA gene. Absolute quantitation of R. equi target molecules was performed using a standard curve and expressed as R. equi vapA target genes per 1 g of feces. […]
The number of CFU/g of either virulent R. equi in feces was estimated using real-time PCR. Because these samples were collected serially from individual mares, these longitudinal data were analyzed using mixed-effects modeling, with time (number of days since last known breeding date) and treatment group modeled as fixed effects, and individual mare modeled as a random effect. […] The count of positive samples were determined for each mare, and Poisson regression analysis was used to examine the effects of treatment. […]

R. equi [6] = assay: Airborne concentration of R. equi in foaling stalls shortly after foaling; assay type: in vivo, Rhodococcus equi; conditions: stall air after foaling
Method: as §3, with “This sample size of mares was selected on the basis of power calculations using the following assumptions: (a) significance level of P=0.05; (b) statistical power of 90%; (c) a mean of 1×10^4 colony forming units (cfu) per gram of feces among control mares; (d) a mean of 1×10^3 cfu per gram of feces among principal mares; and (e) standard deviations of 1×10^4 and 1×10^3 for the control and principal groups, respectively. The values for fecal concentrations were made on the basis of prior experiences of a collaborator.” left out
As part of a non-limiting example of an embodiment of the invention, the following method was employed to determine the effect of oral GAN on the airborne concentration of virulent R. equi in foaling stalls shortly after birth. […] The number of total and virulent R. equi counted on each plate represented the airborne concentrations (cfu/1,000 liters of air). […]

[7] = Safety / adverse effects of gallium nitrate in horses; assay type: in vivo
Method: as §2

R. equi [8] = conditions: cited from earlier work
R. equi [9] = conditions: reported; cited from earlier work
[10] = pregnant mice, cited from earlier work
[11] = 300 to 1500 mg/kg intraperitoneally; cited from earlier work

SMILES: Cc1occc(=O)c1[O-].Cc1occc(=O)c1[O-].Cc1occc(=O)c1[O-].[Ga+3] [Gallium maltolate]
- gallium serum concentration [1]: increased
- cumulative incidence of R equi pneumonia, control versus treated groups (R equi): no significant differences

SMILES: O=[N+]([O-])[O-].O=[N+]([O-])[O-].O=[N+]([O-])[O-].[Ga+3] [gallium nitrate]
- whole blood concentrations following gallium nitrate administration (FIG. 1) ([2]; 9.2 mg/kg daily for 6 days, two horses): increased
- increase in blood concentration over time ([2]; horses): 250%
- blood concentration of gallium, starting value ([2]; horses, value the concentration increased from): 0.0000231 µmol/g
- blood concentration of gallium, after feeding ([2]; horses, value the concentration increased to): 0.0009004 µmol/g
- time of peak gallium in whole blood and serum ([2]; single dose 9.2 mg/kg, 1% gallium nitrate, nasogastric tube): around 24 hours
- time by which absorption of gallium was demonstrated ([2]; single dose 9.2 mg/kg, 1% gallium nitrate, nasogastric tube, whole blood and serum): ≤ 6 h
- fecal concentration of gallium, treated versus control mares (FIG. 3) [3]: significant increase
- concentration of R. equi in the feces of the mares (virulent R. equi [4]; oral gallium nitrate daily): reduction
- concentrations of virulent R. equi in feces, treatment group compared to control (virulent R. equi [4]; time 3, week after foaling, P<0.05): significantly lower
- concentrations of virulent R. equi in feces, time 3 versus time 1 in treatment group (virulent R. equi [4]; week after foaling versus day 320 of gestation, P<0.05): significantly (P<0.05) lower
- highest level of virulent R. equi in feces in any treated mare (virulent R. equi [5]): 17,500 CFU/g
- level of virulent R. equi in feces in most treated mares (virulent R. equi [5]): ≤ 1,600 CFU/g
- level of virulent R. equi in feces in several treated mares (virulent R. equi [5]): almost undetectable levels
- treated mares with positive airborne samples (R. equi [6]): 2 of 10
- adverse effects in dosed horses ([7]; 9.2 mg/kg single dose or daily for 6 days): None of the horses showed any adverse effects
- adverse effects in pregnant mares ([7]; from conception through foaling): no demonstrable adverse effects
- adverse event claims in field use ([7]; used in over 10,000 horses): not been a single claim of any adverse event
- concentration that killed R. equi in culture (R. equi [8]; previous in vitro data): over 0.050 micromoles/ml
- effect on growth of R. equi grown in media (R. equi [8]; reported): significant inhibition in growth and to even kill R. equi
- R. equi growth in experimentally infected mice (R. equi [9]): decrease R. equi growth
- adverse effects in the fetus ([10]; 50 mg/kg and below): no adverse effects
- fetal malformations ([10]; 100 mg/kg): cleft palate and renal hypoplasia were increased
- effect on regeneration of bone and cartilage [11]: dose dependent effect

From patent US20140193521A1, “Drug Delivery Systems and Method of Reducing Foal Infection by Treating Mares with Gallium Salts” (priority 2011, published 2014)
